Patent US8075777B2, “Process for the separation of diastereomers” (E. I. du Pont de Nemours and Company, priority 2007, dated 2011)

How the values were obtained:
[1] = Single stage liquid-liquid extraction of HFC-4310mee with [bmim][BF4] in separatory funnel, GC analysis of upper phase; format: physicochemical; details: 7.2 g HFC-4310mee feed (88.8/11.2 vol % threo/erythro) mixed with 15.1 g [bmim][BF4]
Procedure: To evaluate this characterization, a sample of HFC-4310mee was analyzed by gas chromatography and found to contain 88.8 vol % HFC-4310mee-threo and 11.2 vol % HFC-4310mee-erythro diastereomers. A 7.2 gram sample of HFC-4310mee (i.e., the feed) was mixed with 15.1 grams of [bmim][BF4] (i.e., the extractant) in a separator funnel and vigorously mixed and then allowed to separate into two phases. […] [BF4]. The lower phase was separated from the top phase by opening the stopcock valve on the bottom of the separatory funnel and decanting off the lower phase. The remaining upper phase was analyzed by gas chromatography. The upper phase contained 91.8 vol % HFC-4310mee-threo and 8.2 vol % HFC-4310mee-erythro, which is in accordance with the ternary diagrams.

[2] = NRTL activity model correlation of LLE data (binary interaction parameters, equation 5); format: physicochemical; set-up: key to τ12^(0) / τ21^(0): constant term in τij = τij(0) + τij(1)/T + τij(2)T (NRTL, α=0.2); details: non-deuterated, α=0.2
Excerpt: Observed LLE data have been correlated with the NRTL (non-random two liquid) solution model as described in Shiflett, M. B. and Yokozeki, A. (Vapor-liquid-liquid equilibria of pentafluoroethane and ionic liquid [bmim][PF6] mixtures studied with the volumetric method, J. Phys. Chem. B (2006) 110:14436-14443); and in Shiflett, M. B. and Yokozeki, A. (Vapor-liquid-liquid equilibria of hydrofluorocarbons+1-butyl-3-methylimidazolium hexafluorophosphate, J. Chem. & Eng. Data (2006) 51:1931-1939).
The binary activity coefficients of the NRTL are given by:
[formula] where G12≡exp(−ατ12), and G21≡exp(−ατ21) (3)
α=0.2 (assumed to be a constant of 0.2 in this work).
xi=mole fraction of the i-th species.
The temperature-dependent binary interaction parameter (τij) is modeled here by a three term empirical equation: τ12=τ12^(0)+τ12^(1)/T+τ12^(2)T, and τ21=τ21^(0)+τ21^(1)/T+τ21^(2)T (5)
The binary LLE (L1 for liquid 1 and L2 for liquid 2) are mathematically described by the following equilibrium condition: γi^L1xi^L1=γi^L2xi^L2 (6) Thus, the two adjustable parameters τ12 and τ21 at a given T can be determined from one set of LLE experimental (volumetric method) data, using eq 6 (two nonlinearly coupled equations). We obtained several sets of such LLE data and can obtain τ12 and τ21 at respective T. Then, the empirical parameters in eq 5 were determined and are shown in Example 5, Table 5, where results for only the non-deuterated isomers with ionic liquids are given, since results for the deuterated isomer cases are similar to those in Table 5.

[3] = format: physicochemical
Excerpt: The separation of the erythro or threo diastereomer from a mixture thereof in HFC-4310mee involves one of the diastereomers being soluble to a greater extent in at least one ionic liquid than the other diastereomer is. In order to study this type of behavior, liquid-liquid equilibrium (LLE) and cloud point measurements on samples of HFC-4310mee were made as described in Examples 1 to 4. […]
Initially, the samples were mixed at room temperature (293.2 K) by vigorously shaking the sample containers. […] The water bath was stirred with an agitator (Arrow Engineering Co., Inc. model 1750, Hillside, N.J.) and the temperature measured with a thermocouple (Fluke Corporation, model 5211 thermometer, Everett, Wash.). The Fluke thermometer was calibrated using a standard platinum resistance thermometer (SPRT model 5699, Hart Scientific, American Fork, Utah, range 73 to 933 K) and readout (Blackstack model 1560 with SPRT module 2560). […]
The water bath temperature was initially set at about 283 K, and the sample containers were rocked back and forth. […] The mixing and measurement procedure was repeated each day and the heights plotted as a function of time until no further change in the heights was detected. […]

[4] = Cloud-point measurements / LCST of HFC-4310mee threo isomers plus ionic liquids; format: physicochemical
Excerpt: Starting at ambient temperature of about 293 K, where two liquid phases existed, the temperature was lowered (20 K/h) with manual mixing in a constant temperature bath (Tamson Instruments, TV4000LT, Zoetermeer, Netherlands) until only a single phase existed. The bath temperature was calibrated with the NIST traceable SPRT mentioned previously. Achieving a single phase with the mixtures prepared using [emim][BF4] involved going to a lower temperature than was required to achieve a single phase with the mixtures prepared using [bmim][PF6] and [bmim][BF4]. In addition, the rate of decrease in temperature had to be decreased from 20 to 5 K/h with vigorous manual mixing to prevent the ionic-liquid rich phase from solidifying. Sufficient time with vigorous mixing allowed for mixtures containing 70 mole % and higher threo-H and threo-D isomers with [emim][BF4] to become a single phase at a temperature of 240 K. Once the samples were single phase the temperature was slowly raised 2 K/h until a cloud layer became visible inside the tube. The temperature was recorded for each sample when the cloud layer formed and the temperature was slowly raised until all samples had reached the cloud point.

| SMILES | Content in upper phase (extract) by gas chromatography [1] | τ12^(0) ([2]; isomer (1)/[bmim][BF4] (2)) | τ12^(1)/K ([2]; isomer (1)/[bmim][BF4] (2)) | τ12^(2)/K^−1 ([2]; isomer (1)/[bmim][BF4] (2)) | τ21^(0) ([2]; isomer (1)/[bmim][BF4] (2)) | τ21^(1)/K ([2]; isomer (1)/[bmim][BF4] (2)) | τ21^(2)/K^−1 ([2]; isomer (1)/[bmim][BF4] (2)) | τ12^(0) ([2]; isomer (1)/[bmim][PF6] (2)) | τ12^(1)/K ([2]; isomer (1)/[bmim][PF6] (2)) | τ12^(2)/K^−1 ([2]; isomer (1)/[bmim][PF6] (2)) | τ21^(0) ([2]; isomer (1)/[bmim][PF6] (2)) | τ21^(1)/K ([2]; isomer (1)/[bmim][PF6] (2)) | τ21^(2)/K^−1 ([2]; isomer (1)/[bmim][PF6] (2)) | τ12^(0) ([2]; isomer (1)/[emim][BF4] (2)) | τ12^(1)/K ([2]; isomer (1)/[emim][BF4] (2)) | τ12^(2)/K^−1 ([2]; isomer (1)/[emim][BF4] (2)) | τ21^(0) ([2]; isomer (1)/[emim][BF4] (2)) | τ21^(1)/K ([2]; isomer (1)/[emim][BF4] (2)) | τ21^(2)/K^−1 ([2]; isomer (1)/[emim][BF4] (2)) | Solubility in the present ionic liquids compared with the erythro-D and erythro-H isomers [3] | further results |
| --- | --- | --- | --- | --- | --- | --- | --- | --- | --- | --- | --- | --- | --- | --- | --- | --- | --- | --- | --- | --- | --- |
| F[C@H]([C@H](F)C(F)(F)C(F)(F)F)C(F)(F)F [HFC-4310mee Erythro-H, erythro-2,3-dihydrodecafluoropentanes] | 8.2 vol % | −1.1221 | 1492.7 K | 0 K^−1 | 18.7323 | −3018.8 K | −0.02457 K^−1 | −5.2583 | 2803.2 K | 0 K^−1 | 2.97 | −584.1 K | 0 K^−1 | 25.6965 | −3500.0 K | −0.03688 K^−1 | 72.2927 | −10850.0 K | −0.1125 K^−1 |  |  |
| [2H]C(F)(C(F)(F)F)C([2H])(F)C(F)(F)C(F)(F)F (stereo not drawn) [HFC-4310mee Threo-D] |  |  |  |  |  |  |  |  |  |  |  |  |  |  |  |  |  |  |  | more soluble | Cloud point T/K ([4]; [bmim][BF4], 59.9 ± 0.5 mol % HFC): 311 ± 1 K; Cloud point T/K ([4]; [bmim][BF4], 69.4 ± 0.5 mol % HFC): 310 ± 1 K; Cloud point T/K ([4]; [bmim][BF4], 80.1 ± 0.5 mol % HFC): 309 ± 1 K; Cloud point T/K ([4]; [bmim][BF4], 89.3 ± 0.5 mol % HFC): 310 ± 1 K; Cloud point T/K ([4]; [bmim][PF6], 40.0 ± 0.5 mol % HFC): 272 ± 1 K; Cloud point T/K ([4]; [bmim][PF6], 50.0 ± 0.5 mol % HFC): 271 ± 1 K; Cloud point T/K ([4]; [bmim][PF6], 59.7 ± 0.5 mol % HFC): 271 ± 1 K; Cloud point T/K ([4]; [bmim][PF6], 69.8 ± 0.5 mol % HFC): 267 ± 1 K; Cloud point T/K ([4]; [bmim][PF6], 79.7 ± 0.5 mol % HFC): 267 ± 1 K; Cloud point T/K ([4]; [bmim][PF6], 88.5 ± 0.5 mol % HFC): 272 ± 1 K; Cloud point T/K ([4]; [emim][BF4], 69.6 ± 0.5 mol % HFC): 252 ± 3 K; Cloud point T/K ([4]; [emim][BF4], 80.1 ± 0.5 mol % HFC): 261 ± 2 K; Cloud point T/K ([4]; [emim][BF4], 89.8 ± 0.5 mol % HFC): 273 ± 1 K |
| F[C@H]([C@@H](F)C(F)(F)C(F)(F)F)C(F)(F)F [HFC-4310mee Threo-H, threo-2,3-dihydrodecafluoropentanes] | 91.8 vol % | 91.1575 | −1463.8 K | −0.1288 K^−1 | 81.6624 | −1506.8 K | −0.1092 K^−1 | 145.421 | −22306.3 K | −0.2229 K^−1 | −37.7767 | 5492.1 K | 0.06485 K^−1 | 50.3746 | −7994.5 K | −0.06965 K^−1 | −7.2227 | 1138.3 K | 0.0158 K^−1 | more soluble | LCST (lower critical solution temperature) ([4]; [bmim][BF4] system, at about 75 mole %): 307-309 K; Cloud point T/K ([4]; [bmim][BF4], 50.0 ± 0.5 mol % HFC): 311 ± 1 K; Cloud point T/K ([4]; [bmim][BF4], 59.1 ± 0.5 mol % HFC): 309 ± 1 K; Cloud point T/K ([4]; [bmim][BF4], 69.8 ± 0.5 mol % HFC): 308 ± 1 K; Cloud point T/K ([4]; [bmim][BF4], 79.5 ± 0.5 mol % HFC): 307 ± 1 K; Cloud point T/K ([4]; [bmim][BF4], 91.0 ± 0.5 mol % HFC): 308 ± 1 K; LCST (lower critical solution temperature) ([4]; [bmim][PF6] system, at about 70 (threo-isomer) mole %): 265-267 K; Cloud point T/K ([4]; [bmim][PF6], 40.6 ± 0.5 mol % HFC): 270 ± 1 K; Cloud point T/K ([4]; [bmim][PF6], 50.8 ± 0.5 mol % HFC): 269 ± 1 K; Cloud point T/K ([4]; [bmim][PF6], 60.4 ± 0.5 mol % HFC): 268 ± 1 K; Cloud point T/K ([4]; [bmim][PF6], 69.7 ± 0.5 mol % HFC): 265 ± 1 K; Cloud point T/K ([4]; [bmim][PF6], 80.0 ± 0.5 mol % HFC): 264 ± 1 K; Cloud point T/K ([4]; [bmim][PF6], 90.0 ± 0.5 mol % HFC): 276 ± 1 K; LCST (lower critical solution temperature) ([4]; [emim][BF4] system, at near 50 mole %): about 250 K; Cloud point T/K ([4]; [emim][BF4], 69.8 ± 0.5 mol % HFC): 250 ± 3 K; Cloud point T/K ([4]; [emim][BF4], 80.0 ± 0.5 mol % HFC): 260 ± 2 K; Cloud point T/K ([4]; [emim][BF4], 90.1 ± 0.5 mol % HFC): 268 ± 1 K |
